Here are results for two compounds from patent US10555951B2, “Targeted treatment of leiomyosarcoma” (Eli Lilly and Company, priority 2015, dated 2020).

Where “and” joins values, the source holds several entries; their conditions need not be identical. Equal values may be shown once.

In data set [1] the test system is leiomyosarcoma tumor. Kind of data set: Clinical evaluation: leiomyosarcoma patients, cycle 1, CT scan and DCE-US (Table 2). It is filed as in vivo, human. The text has this: A study of 4,4,4-Trifluoro-N-[(1S)-2-[[(7S)-5-(2-hydroxyethyl)-6-oxo-7H-pyrido[2,3-d][3]benzazepin-7-yl]amino]-1-methyl-2-oxo-ethyl]butanamide hydrate in patients with advanced or metastatic cancer.
(§1) This study is a multicenter, nonrandomized, open-label, dose-escalation study followed by cohort expansion of oral dosed 4,4,4-trifluoro-N-[(1S)-2-[[(7S)-5-(2-hydroxyethyl)-6-oxo-7H-pyrido[2,3-d][3]benzazepin-7-yl]amino]-1-methyl-2-oxo-ethyl]butanamide hydrate in outpatients with advanced or metastatic cancer.
(§2) 4,4,4-Trifluoro-N-[(1S)-2-[[(7S)-5-(2-hydroxyethyl)-6-oxo-7H-pyrido[2,3-d][3]benzazepin-7-yl]amino]-1-methyl-2-oxo-ethyl]butanamide hydrate, dose range 2.5 to 100 mg, given orally as capsules 3 times per week during a 28-day cycle.
(§3) 4,4,4-Trifluoro-N-[(1S)-2-[[(7S)-5-(2-hydroxyethyl)-6-oxo-7H-pyrido[2,3-d][3]benzazepin-7-yl]amino]-1-methyl-2-oxo-ethyl]butanamide hydrate will be administered orally TIW during both the dose-escalation phase (Part A) and the dose-confirmation phase (Part B).
(§4) Efficacy: Depending on the histology, efficacy will be assessed using Response Evaluation Criteria in Solid Tumors (RECIST) v1.1 for solid tumors, the Revised Criteria for Malignant Lymphoma, the Guidelines from the National Cancer Institute Working Group for CLL, or the Response Assessment in Neuro-Oncology (RANO) criteria for glioblastoma. Each patient will be assessed by 1 or more of the following radiologic tests for tumor measurement: X-ray computerized tomography (CT) scan; magnetic resonance imaging (MRI); chest X-ray; PET scan; PET/CT imaging Standardized Uptake Values (SUVMAX).
Data on 3 patients having leiomyosarcoma administered 4,4,4-trifluoro-N-[(1S)-2-[[(7S)-5-(2-hydroxyethyl)-6-oxo-7H-pyrido[2,3-d][3]benzazepin-7-yl]amino]-1-methyl-2-oxo-ethyl]butanamide hydrate in cycle 1 of an ongoing clinical trial are presented in Table 2. Patient 1 was previously treated for leiomyosarcoma with surgery, radiation therapy and 5 prior regimens of systemic therapeutic or targeted therapies. Patient 2 was previously treated for leiomyosarcoma with surgery, radiation therapy, brachytherapy and 3 prior regimens of systemic therapeutic or targeted therapies. Patient 3 was previously treated for leiomyosarcoma with surgery and 3 prior regimens of systemic therapeutic or targeted therapies.

Data set [2] deals with leiomyosarcoma tumor. The experiment in a line: Clinical evaluation Part B: leiomyosarcoma patients, RECIST, tumor size, PET/CT SUVmax (Table 3). Type of data set: in vivo, human.
Source text: PET/CT imaging of cancer with combined positron emission tomography (PET) and X-ray computerized tomography (CT) scanners has become a standard component of diagnosis and staging in oncology. The use of the radiolabeled tracer 2-deoxy-2-[^18F]fluoro-D-glucose (FDG) is used for the majority of all PET/CT imaging procedures. One of the advantages of PET/CT imaging is its ability to detect, very early during treatment, significant changes in glucose metabolism or even complete shutoff of the neoplastic cell metabolism as a surrogate of tumor chemosensitivity assessment. In addition to cancer detection and staging, PET/CT imaging is becoming increasingly important as a quantitative monitor of individual response to therapy and an evaluation tool for new drug therapies. […] RECIST criteria, where response of tumors to therapy has traditionally assessed by measurement of changes in size/dimension of the tumors in CT images may not evidence early response to the therapy. Changes in size of tumors as a result of therapy may take a long period of time to develop. The most widely used parameter is the standardized uptake value (SUV) is defined as the maximal SUV value (SUVMAX) in the region of interest and reduction in SUVMAX is generally considered the most reliable indicator of the metabolic activity shutdown.
as §1, §2, §3, §4
Data on 19 additional patients having leiomyosarcoma administered 4,4,4-trifluoro-N-[(1S)-2-[[(7S)-5-(2-hydroxyethyl)-6-oxo-7H-pyrido[2,3-d][3]benzazepin-7-yl]amino]-1-methyl-2-oxo-ethyl]butanamide hydrate in Part B of an ongoing clinical trial are presented in Table 3. Choi Response Criteria, were recorded for a limited number of patients and are not reported in Table 3, Choi et al, J Clin Oncol. 2007; 25:1753-1759.

A short description of data set [3]: Atropisomer equilibrium in solution by 1H NMR and LC-MS. It is filed as physicochemical. As to conditions: ambient temperature, after 24 hours. On the procedure: In aqueous solutions, 8-9% of atropisomer 2 (minor atropisomer) is detected by ^1H NMR and LC-MS in equilibrium with atropisomer 1 (major atropisomer) at ambient temperature after 24 hours. In organic solvents, at ambient temperature after 24 hours, approximately 1-2% of atropisomer 2 is detected by ^1H NMR and LC-MS in equilibrium with atropisomer 1. Although detectable by ^1H NMR and LC-MS analysis, atropisomer 2 is not isolable.

Where [4] appears, read: Patient 1, initial oral dose 100 mg T.I.W., cycle 1.
Where [5] appears, read: first assigned dose 50 mg, individual LMS patients 8-22, Hydrate.
The mark [6] stands for this setting: first assigned dose 75 mg, individual LMS patients 4-7, Hydrate.

Regarding `C[C@H](NC(=O)CCC(F)(F)F)C(=O)N[C@@H]1C(=O)N(CCO)c2ncccc2-c2ccccc21` [4,4,4-Trifluoro-N-[(1S)-2-[[(7S)-5-(2-hydroxyethyl)-6-oxo-7H-pyrido[2,3-d][3]benzazepin-7-yl]amino]-1-methyl-2-oxo-ethyl]butanamide Hydrate], in the data set with leiomyosarcoma tumor [1] (setting [4]), the “Overall Response DCE-US” value was “Confirmed” and the “Target Response” value was determined as 90% necrosis. Further, the “Additional CT scan imaging after 1 cycle” value in the data set on leiomyosarcoma tumor [1] (after 1 cycle (28 days), patients 1-3) is recorded as “confirmed necrosis in all three patients”. Moreover, the “Necrosis of leiomyosarcoma tumor (CT scan of the liver, confirmed by DCE-US)” value in the data set on leiomyosarcoma tumor [1] (patients 1 and 2, first week of treatment) is “significant necrosis”. In addition, in the data set on leiomyosarcoma tumor [2] (setting [5]), the “Best Change in Tumor Size (%)” value is 13% and 60% and 37% and 19% and 20% and −13% and 33% and 24% and 23% and 50%; the “PET/CT Scan (change in SUVmax %)” value is −7% and 37% and −5% and −30% and 0% and −11% and 16%. In the data set with leiomyosarcoma tumor [2] (setting [6]), the “Best Change in Tumor Size (%)” value was 13% and 23% and 2%; the “Best RECIST Response” value is “Unconfirmed PR”; the “PET/CT Scan (change in SUVmax %)” value was −4% and 58% and 10% and 32%. Further, in the data set with leiomyosarcoma tumor [2] (summary of Table 3 data), the “Clinical effect in leiomyosarcoma tumor patients (PET/CT SUVMAX data)” value is reported as “beneficial clinical effect”.

In the case of `C[C@H](NC(=O)CCC(F)(F)F)C(=O)N[C@@H]1C(=O)N(CCO)c2ncccc2-c2ccccc21` [Compound 1, 4,4,4-trifluoro-N-[(1S)-2-[[(7S)-5-(2-hydroxyethyl)-6-oxo-7H-pyrido[2,3-d][3]benzazepin-7-yl]amino]-1-methyl-2-oxo-ethyl]butanamide], the “atropisomer 2 (minor atropisomer) detected in equilibrium with atropisomer 1” value in data set [3] (aqueous solutions) is listed as 8-9%. Moreover, the “atropisomer 2 detected in equilibrium with atropisomer 1” value in data set [3] (organic solvents) is on record as 1-2%.
